{"source": "patent US20070203212A1", "about": "“METHOD OF TREATING OSTEOARTHRITIS” (WARNER-LAMBERT COMPANY, priority 2002, published 2007)", "assay_type_in_all_cases": "in vivo", "key": {"[1]": {"test_system": "monoclonal antibody-induced arthritis", "experiment": "Monoclonal antibody-induced arthritis (MAIA) mouse model, footpad and ankle swelling", "conditions": "p<0.05 (FIG. 8)", "description": "In a typical MAIA experiment, groups of four mice were injected intraperitoneally (“i.p.”) with 0.4 mL (BALB/c and DBA/1 strains) or 0.8 mL (C57BL/6, 129X1/SvJ, C3H/HeJ, and C3H/FeJ strains) with a 10 mg/mL solution of Arthrogen-CIA Monoclonal Antibody Blend (Chemicon International, Inc.). Two days later, the mice were injected i.p. with 0.2 mL of a 0.25 mg/mL solution of LPS (lipopolysaccharide form Escherichia coli (“E. coli”) strain 0111B4) in PBS. Footpad and ankle size was assessed using a Dyer Digital Caliper (#655-030-4916) on the day of mAb injection, and every two days following LPS injection."}, "[2]": {"test_system": "monosodium iodoacetate (MIA)-induced osteoarthritis", "experiment": "MIA rat model, chronic oral b.i.d. dosing: tibial plateau cartilage erosion analysis", "conditions": "for Decreased Erosion Size (statistically significant decrease in size of area of joint erosion) / SDCES (Significant Decrease In Cartilage Erosion Severity), Ridit analysis: 28 days; for SDCES (Significant Decrease In Cartilage Erosion Severity), Ridit analysis: calcium salt", "description": "In a particular experiment, monosodium iodoacetate (“MIA”) (1 mg/joint) was injected through the infrapatellar ligament of the right knee of anesthetized male, Wistar rats. The contralateral control knee was injected with 50 μL of physiologic saline. The change in hind paw weight distribution, as determined by use of an incapacitance tester, between the right (arthritic) and left (contralateral control) knees was utilized as an index of functional limitation in the arthritic knee. Limitations in joint function were determined on Days 7, 14, and 28 following induction of arthritis. Following sacrifice, erosion severity was determined on the tibial plateaus from the arthritic joint. Histological analysis was also conducted on these samples.\nThe ridit analysis was used to determine differences in overall erosion severity. This parameter takes into account both the erosion grade (0=no erosion, I=erosion extending into the superficial or middle layers, or II=deep layer erosion), and area (small, medium and large, quantified by dividing the area of the largest erosion in each score into thirds) simultaneously.\nAfter administering CI-1027 b.i.d. for 4 weeks, the rats were euthanized by CO2 administration. The soft tissue was removed from the right (arthritic) leg, the joint was disarticulated, and the meniscus was carefully removed to expose the surface of the tibial plateau. The tibia was removed and placed in physiologic saline until erosion analysis was performed. Tibial plateau erosions were analyzed the same day as the sacrifice as follows. Each plateau was dipped in India ink for approximately 30 seconds to help define the erosions, rinsed in saline, and blotted on a paper towel. A stereomicroscope equipped with a digital camera was used to photograph each plateau. The tibial plateaus were photographed and graded separately by two ordinary skilled persons using the following system:\nGrade I=erosion extending into the superficial or middle layers;\nGrade II=deep layer erosion; no cartilage, sub-chondral bone exposed.\nThe photographs were transferred to a computer for image analysis using a Zeiss KS 300 Image Analysis System to determine the total erosion area for each grade, expressed in square millimeters (“mm^2”). A RIDIT analysis (see above) was used to determine differences in overall erosion severity. This analysis takes into account both the erosion grade and area (small, medium and large, quantified by dividing the area of the largest erosion in each score into thirds) simultaneously."}, "[3]": {"test_system": "monosodium iodoacetate (MIA)-induced osteoarthritis", "experiment": "MIA rat model, chronic oral b.i.d. dosing: change in hind paw weight distribution (joint function limitation / joint pain)", "conditions": "for IJFL (Inhibition of Joint Function Limitation) (% +/− SEM): four week study; for change in hind paw weight distribution: Days 7, 14 and 28 (FIG. 3); for inhibition of change in hind paw weight distribution: 30 mg/kg PO b.i.d.", "description": "It should be appreciated that in Biological Methods 1, 2, 4, and 5 below, hind paw weight bearing differentials between the paw of the limb having the control joint (in animals administered test compound vehicle only) and the paw of the limb having the contralateral test joint (in control or inducement animals administered test compound vehicle only and in treatment animals administered test compound dissolved in test compound vehicle) were determined using an incapacitance tester, model 2KG (Linton Instrumentation, Norfolk, United Kingdom). The incapacitance tester has a chamber on top with an outwardly sloping front wall that supports a rat's front limbs, and two weight sensing pads, one for each hind paw, that facilitates this determination. The hind paw weight bearing differentials were expressed in grams and calculated as follows: (the average weight in grams placed on the control limb minus the average weight in grams placed on the contralateral test limb for each of the inducement or treatment animals) minus (the average weight in grams placed on the control limb minus the average weight in grams placed on the contralateral test limb for each of the control animals). All results were statistically analyzed by comparing the average results for an induction or treatment group with the average result for its control group at the same time point using analysis of covariance (“ANCOVA”) followed by the Hoehberg's procedure and those with statistical significance had p<0.05 unless otherwise noted.\nGenerally, In the MIA Rat model on Day 0, the hind-paw weight differential between the right arthritic joint and the left healthy joint of male Wistar rats (150 g) are determined with an incapacitance tester, model 2KG (Linton Instrumentation, Norfolk, United Kingdom). The incapacitance tester has a chamber on top with an outwardly sloping front wall that supports a rat's front limbs, and two weight sensing pads, one for each hind paw, that facilitates this determination. Then the rats are anesthetized with isofluorine, and the right, hind leg knee joint is injected with 1.0 mg of mono-iodoacetate (“MIA”) through the infrapatellar ligament. Injection of MIA into the joint results in the inhibition of glycolysis and eventual death of surrounding chondrocytes. The rats are further administered either an active compound useful in the invention method, or a pharmaceutically acceptable salt thereof, or vehicle (in the instant case, water) daily for 14 days or 28 days. The substituted dialkyl ether, substituted aryl-alkyl ether, substituted dialkyl thioether, substituted dialkyl ketone, or substituted-alkyl compound useful in the invention method, or a pharmaceutically acceptable salt thereof, is typically administered at a dose of 30 mg of substituted dialkyl ether, substituted aryl-alkyl ether, substituted dialkyl thioether, substituted dialkyl ketone, or substituted-alkyl compound useful in the invention method, or a pharmaceutically acceptable salt thereof, per kilogram of rat per day (30 mg/kg/day), but may be administered at other doses such as, for example, mg/kg/day, 60 mg/kg/day, 90-mg/kg/day, or 100 mg/kg/day according to the requirements of the compound being studied. It is well within the level of ordinary skill in the pharmaceutical arts to determine a proper dosage of an active compound useful in the invention method, or a pharmaceutically acceptable salt thereof, in this model. Administration of the substituted dialkyl ether, substituted aryl-alkyl ether, substituted dialkyl thioether, substituted dialkyl ketone, or substituted-alkyl compound useful in the invention method, or a pharmaceutically acceptable salt thereof, in this model is optionally by oral administration or intravenous administration via an osmotic pump. After 7 and 14 days for a two week study, or 7, 14, and 28 days for a four week study, the hind-paw weight distribution is again determined. […]"}, "[4]": {"conditions": "30 mg/kg PO BID, dose-response experiment"}}, "note": "“Also recorded” adds a separate entry of the source. Marks after values point to notes of the source that are not given here."}
{"molecule": "CC(C)(CCCCOCCCCC(C)(C)C(=O)[O-])C(=O)[O-].[Ca+2]", "note": "[CI-1027, 6-(5-carboxy-5-methyl-hexyloxy)-2,2-dimethyl-hexanoic acid, calcium salt]", "values": [{"measurement": "change in mouse ankle joint and paw swelling", "setting": "[1]; 100 mg/kg oral daily, Day 7", "value": "inhibits a change in mouse ankle joint and paw swelling"}, {"measurement": "change in mouse ankle joint and paw swelling", "setting": "[1]; 200 mg/kg oral daily, Days 4, 7 and 9", "value": "inhibits a change in mouse ankle joint and paw swelling"}, {"measurement": "Decreased Erosion Size (statistically significant decrease in size of area of joint erosion)", "setting": "[2]; 3 mg/kg PO BID", "value": "No"}, {"measurement": "SDCES (Significant Decrease In Cartilage Erosion Severity), Ridit analysis", "setting": "[2]; 3 mg/kg PO BID", "value": "statistically significant inhibitory effect; also recorded: Yes^f"}, {"measurement": "Decreased Erosion Size (statistically significant decrease in size of area of joint erosion)", "setting": "[2]; 10 mg/kg PO BID", "value": "Yes^c"}, {"measurement": "SDCES (Significant Decrease In Cartilage Erosion Severity), Ridit analysis", "setting": "[2]; 10 mg/kg PO BID", "value": "significantly decrease cartilage erosion severity; also recorded: statistically significant inhibitory effect; also recorded: Yes^e"}, {"measurement": "decrease in total erosion area (regardless of grade)", "setting": "[2]; 10 mg/kg PO b.i.d. 28 days, dose-response experiment (FIG. 5), statistically significant", "value": 62.4, "unit": "%"}, {"measurement": "Decreased Erosion Size (statistically significant decrease in size of area of joint erosion)", "setting": "[2]; [4]", "value": "No"}, {"measurement": "SDCES (Significant Decrease In Cartilage Erosion Severity), Ridit analysis", "setting": "[2]; [4]", "value": "significantly decrease cartilage erosion severity; also recorded: significantly decreased the degree of structural damage to the cartilage; also recorded: statistically significant inhibitory effect; also recorded: Yes^d"}, {"measurement": "Decreased Erosion Size (statistically significant decrease in size of area of joint erosion)", "setting": "[2]; 30 mg/kg PO BID, single-dose-level experiment", "value": "No"}, {"measurement": "SDCES (Significant Decrease In Cartilage Erosion Severity), Ridit analysis", "setting": "[2]; 30 mg/kg PO BID, single-dose-level experiment (p = 0.100)", "value": "no statistically significant effect and No^g"}, {"measurement": "treated rats with no erosions", "setting": "[2]; 30 mg/kg PO b.i.d. 28 days, first experiment, N=12", "value": "5 of the 12"}, {"measurement": "decrease in total erosion area (regardless of grade)", "setting": "[2]; 30 mg/kg PO b.i.d. 28 days, first experiment, not statistically significant (p=0.179)", "value": 43, "unit": "%"}, {"measurement": "IJFL (Inhibition of Joint Function Limitation) (% +/− SEM)", "setting": "[3]; 3 mg/kg PO BID", "value": "3 +/− 156%"}, {"measurement": "change in hind paw weight distribution", "setting": "[3]; 3 mg/kg PO b.i.d.", "value": "no statistically significant changes"}, {"measurement": "IJFL (Inhibition of Joint Function Limitation) (% +/− SEM)", "setting": "[3]; 10 mg/kg PO BID", "value": "36 +/− 9%"}, {"measurement": "change in hind paw weight distribution", "setting": "[3]; 10 mg/kg PO b.i.d.", "value": "no statistically significant changes"}, {"measurement": "IJFL (Inhibition of Joint Function Limitation) (% +/− SEM)", "setting": "[3]; [4]", "value": "63 +/− 8^a %"}, {"measurement": "IJFL (Inhibition of Joint Function Limitation) (% +/− SEM)", "setting": "[3]; 30 mg/kg PO BID, single-dose-level experiment (last table row)", "value": "60 +/− 8^a %"}, {"measurement": "inhibition of change in hind paw weight distribution", "setting": "[3]; Day 7, dose-response experiment (FIG. 3), not significant", "value": "38±14", "unit": "%"}, {"measurement": "inhibition of change in hind paw weight distribution", "setting": "[3]; Day 7, first experiment (FIG. 2)", "value": "47±8", "unit": "%"}, {"measurement": "inhibition of change in hind paw weight distribution", "setting": "[3]; Day 14, dose-response experiment (FIG. 3)", "value": "50±10", "unit": "%"}, {"measurement": "inhibition of change in hind paw weight distribution", "setting": "[3]; Day 14, first experiment (FIG. 2)", "value": "71±9", "unit": "%"}, {"measurement": "inhibition of change in hind paw weight distribution", "setting": "[3]; Day 28, dose-response experiment (FIG. 3)", "value": "62±8", "unit": "%"}, {"measurement": "inhibition of change in hind paw weight distribution", "setting": "[3]; Day 28, first experiment (FIG. 2)", "value": "60±8", "unit": "%"}]}
